Experimental data published in patent US10443043B2, “Methods for making induced pluripotent stem cells” (NEW YORK UNIVERSITY, priority 2015, dated 2019).

Assays:
Format in all cases: cell-based, mouse
[1] = tested on: SSEA1+ day 4 intermediates of reprogrammable MEFs; assay: Microarray and gene ontology analysis of day 4 reprogramming intermediates; settings: individual chemical
Source text: For the study of reprogramming intermediates, cultures of reprogrammable MEFs at day 4 in presence of OKSM expression were harvested and stained with biotinylated anti-SSEA1 antibody (MC-480, eBioscience), followed by APC-conjugated Streptavidin and anti-APC microbeads (Milteny Biotec). SSEA1^+ cells were enriched to ˜90% purity using MACS separation columns (Milteny Biotec) according to the manufacturer's instructions. Total RNA extracted with the miRNeasy mini kit (QIAGEN) with a RIN value >8 was subjected to transcriptional analyses with Affymetrix mouse genome 430 2.0 mRNA expression microarrays followed by bioinformatic analyses.
Pair-wise differential expression of MEFs, ESCs, GMPs and HEPs was assessed using a t-test and the resulting p-values were adjusted for multiple hypothesis testing as by the Benjamini & Hochberg procedure. […] FDR was assessed using the following methodology. […] Briefly, differential expression was assessed for every Affymetrix transcript probe between samples. As a preprocessing step, quantiles were normalized across samples and replicates, and subsequently fold changes were computed for each probe across the two replicates of each sample. The false discovery rate was computed by comparing the distribution of fold changes against the distribution of fold changes between replicates of the same sample.

GMPs [2] = assay: Bulk reprogramming of granulocyte-macrophage progenitors, dox-independent colonies
Procedure: (§1) MEFs (Stadtfeld et al., 2008) and hepatoblasts (Gailhouste, 2012) were isolated from E14.5 embryos and GMPs, CMPs, MEP and LSK cells from either fetal liver or adult bone marrow (Akashi et al., 2000). All cell types used for reprogramming experiments were heterozygous for the inducible OKSM cassette, Rosa26-rtTA and the Oct4-GFP reporter. MEFs were expanded in reduced-oxygen conditions (4%) and used at passages 1 or 2. For reprogramming, cells were seeded in ESC media (DMEM with 15% FBS, L-glutamin, penicillin-streptomycin, nonessential amino acids, β-mercaptoethanol and 1000 U/ml LIF) at the desired density on a layer of irradiated feeder cells in presence of 1 mg/ml doxycycline. If applicable, L-Ascorbic acid (50 ng/μl), CHIR99021 (3 μM), TGFβ RI Kinase Inhibitor II (250 nM) and PD032590 (0.75 μM) were added. […] To score factor-independent colonies, dox (and other compounds) were removed by washing cultures twice with PBS and then maintaining them in ESC media for at least three days before colonies were counted by fluorescence microscopy or after alkaline phosphatase staining (Vector Laboratories). For quantification of Oct4-GFP expression, cultures were harvested by trypsin digestion, stained with DAPI or 7-AAD to exclude dead cells, acquired on a LSRII cytometer (BD Biosciences) and analyzed with FlowJo software (Tree Star Inc.). […]

reprogrammable MEFs = assay: Reprogramming of reprogrammable MEFs seeded in bulk, dox-independent colonies; settings: six days dox plus compound, then three days unsupplemented ESC media
Procedure: MEFs (Stadtfeld et al., 2008) and hepatoblasts (Gailhouste, 2012) were isolated from E14.5 embryos and GMPs, CMPs, MEP and LSK cells from either fetal liver or adult bone marrow (Akashi et al., 2000). All cell types used for reprogramming experiments were heterozygous for the inducible OKSM cassette, Rosa26-rtTA and the Oct4-GFP reporter. MEFs were expanded in reduced-oxygen conditions (4%) and used at passages 1 or 2. For reprogramming, cells were seeded in ESC media (DMEM with 15% FBS, L-glutamin, penicillin-streptomycin, nonessential amino acids, β-mercaptoethanol and 1000 U/ml LIF) at the desired density on a layer of irradiated feeder cells in presence of 1 mg/ml doxycycline. If applicable, L-Ascorbic acid (50 ng/μl), CHIR99021 (3 μM), TGFβ RI Kinase Inhibitor II (250 nM) and PD032590 (0.75 μM) were added. For GMPs and other blood progenitors, cultures were supplemented with Flt3-ligand (10 ng/ml) and SCF (20 ng/ml) for the first three days of reprogramming. Media was replenished every two days. To facilitate detection of Oct4-GFP expression in nascent colonies by fluorescent microscopy, reprogramming experiments were conducted in ESC media prepared with FluoroBrite DMEM (Life Technologies) when required. To score factor-independent colonies, dox (and other compounds) were removed by washing cultures twice with PBS and then maintaining them in ESC media for at least three days before colonies were counted by fluorescence microscopy or after alkaline phosphatase staining (Vector Laboratories). For quantification of Oct4-GFP expression, cultures were harvested by trypsin digestion, stained with DAPI or 7-AAD to exclude dead cells, acquired on a LSRII cytometer (BD Biosciences) and analyzed with FlowJo software (Tree Star Inc.).
The aforementioned compounds were tested using “reprogrammable MEFs” (Stadtfeld et al., 2010) engineered to express a doxycycline (dox)-inducible cassette encoding OKSM (Sommer et al., 2009) from a single defined genomic position and a GFP reporter from the endogenous Oct4 locus, whose expression is a hallmark of the pluripotent state. […]

hepatoblasts = assay: Reprogramming of hepatoblasts, dox-independent colonies; settings: compound alone
Procedure: as §1

GMPs [3] = assay: Single cell seeding of DsRed GMPs, Oct4-GFP expression; settings: flow cytometry, six days
Procedure: as §1

β-catenin = β-catenin immunofluorescence in GMPs; settings: purified GMPs cultured in CHIR, two days
Source text: FIG. 8A-8G. Related to FIG. 3. (8A) Fluorescence images of DsRed and Oct4-GFP expression in a representative GMP-derived colony derived upon culture in dox+CHIR for six days. (8B) Percentage of Oct4-GFP^+ cells in successfully reprogramming colonies after single cell seeding of GMPs in dox+CHIR or dox+3c, respectively (n=10 clonal colonies for each condition). (8C) AP staining of dox-independent colonies derived from LSK, GMP, MEP and CMPs in dox, dox+CHIR or dox+3c after six days of culture. (8D) Percentage of Oct4-GFP^+ cells in colonies obtained after single cell seeding of hepatoblasts and culture under the indicated conditions for six days (n=10 clonal colonies). (8E) IF images of β-catenin staining in cells derived from GMPs cultured under dox or dox+CHIR for two days. White arrows highlight representative cells positive for β-catenin expression. […]
Cells were fixed with paraformaldehyde, permeabilized and stained with primary antibodies against Oct4 (Santa Cruz, sc-8628), Nanog (Abcam, ab808992), Utf1 (Abcam, ab24273), Sall4 (Abcam, ab29112), Lin28 (Abcam, ab46020) and β-catenin (Sigma, C7207) followed by staining with appropriate secondary antibodies conjugated to either Alexa Fluor 555 or 647 (Invitrogen). Images were acquired with a Neo 5.5 cSMOS camera (Andor) and processed and analyzed using NIS-Elements and Adobe Photoshop. […]

O=C1O[C@H]([C@@H](O)CO)C(O)=C1O [AA, ascorbic acid]
aspect of the somatic program whose silencing is facilitated (GO analysis) [1]: mesodermal differentiation potential | effect on iPSC formation from blood progenitor cells (GMPs [2]): did not significantly enhance | dox-independent colonies, efficiency of input cells (reprogrammable MEFs): about 2%

Cc1c[nH]c(-c2cnc(NCCNc3ccc(C#N)cn3)nc2-c2ccc(Cl)cc2Cl)n1 [CHIR]
effect on number of iPSC colonies from hepatoblasts (hepatoblasts): little beneficial effect | average GFP labeling index (Oct4-GFP+ cells in colonies) (GMPs [3]): over 90% | β-catenin protein level (β-catenin): rapidly accumulated | dox-independent colonies, efficiency of input cells (reprogrammable MEFs): 0.5%

Cc1cccc(-c2[nH]ncc2-c2ccc3ncccc3n2)n1 [iAlk5]
aspect of the somatic program whose silencing is facilitated (GO analysis) [1]: collagen synthesis | dox-independent colonies, efficiency of input cells (reprogrammable MEFs): about 2%
